Reference: patent US20230202997A1, “CHROMANOL, QUINONE OR HYDROQUINONE COMPOUNDS FOR TREATMENT OF SEPSIS” (Sulfateq B.V., priority 2020, published 2023)

Columns and labels:
[1] = tested on: CLP-induced kidney dysfunction; test: CLP sepsis model, serum urea and NGAL as kidney biomarkers; type: in vivo; conditions: CLP mice; SUL-138 5 mg/kg s.c. 2 h before and 8 h after surgery; 24 hours
Method: To induce sepsis, the standard cecal ligation and puncture (CLP) model was used. Animals were anesthetized by subcutaneous injection of xylazine/ketamine (100/10 mg/kg), followed by administration of buprenorphine (0.1 mg/kg) as analgesic. After confirmation of anesthesia by lack of response to paw pinch and eye reflex, the abdomen was shaved, cleaned, and de-germed using a povidone-iodine solution before a 1-cm midline incision was made. The cecum was ligated with a 6-0 suture at half the distance between distal pole and the base of the cecum and punctured once with a 21-Gauge needle (‘through-and-through’ from mesenteric toward anti-mesenteric direction) which is an accepted model for ‘mid-grade’ sepsis. A small amount of stool (2-3 mm) was then extruded to ensure wound patency. The cecum was repositioned, thereby taking care not to spill fecal material on the wound edges, followed by closure of the abdomen by running sutures to the abdominal musculature and short interrupted sutures to the skin. Next, 1 ml of saline (warmed, 0.9% NaCl s.c.) was administered to compensate for the expected relative volume depletion due to the onset of sepsis. […]
Furthermore, the amount of NGAL and urea were measured in serum.

HUVEC = test: LPS-challenged HUVEC respiration (uncoupled state, CCCP); type: cell-based, Human; conditions: 10 ug/ml LPS, SUL-138 added one hour prior to LPS
Method: Human Umbilical Vein Endothelial cells (HUVEC) were obtained from the RuG/UMCG Endothelial Cell Facility. Primary isolates of umbilical cords were mixed and subsequently cultured on HUVEC culture medium, consisted of RPMI 1640 (Lonza, art.nr. BE12-115F) supplemented with 20% heat-inactivated fetal calf serum (ThermoFisher Scientific, art.nr. 10082147), 2 mM 1-glutamine (Life Technologies art.nr. 25030), 5 U/ml heparin (Leo Pharmaceutical Products), 1% Penicillin/Streptomycin (Sigma-Aldrich art.nr. P4333), and 50 μg/ml EC growth factor supplement from (Sigma-Aldrich, art.nr. E2759).
Primary HUVECs were cultured in 75-cm2 tissue culture flasks (Corning, art.nr. 430720U) at 37° C. under 5% CO2/95% air. HUVECs were used for experiments up to passage 8. Experiments were performed in 6-well (Corning art.nr. 3506) or 96-well culture plates (Corning, art.nr. 3596), at 80% confluency. Cells were stimulated with LPS E. coli 0111:B4 (Sigma-Aldrich, art.nr. L2630) in different concentrations. Cells were detached with trypsin (Sigma-Aldrich, art.nr. 25300054). All compounds were dissolved in Hanks Balanced Salt Solution (Lonza, art.nr. 10-527F).
HUVECs were pre-incubated with SUL-138 in an amount of 10 microgram/ml, which was added one hour prior to LPS-stimulation. Such pre-incubation is the standard in in vitro models.

TNFα mRNA expression = test: Inhibition of LPS-induced TNFα mRNA expression in HUVEC; type: cell-based, Human; conditions: 10 μM for 30 min, then LPS 24 hours
Method: (§1) Human Umbilical Cord Endothelial Cells (HUVEC, Lonza CC-2519) were maintained on 1% gelatin-coated culture flasks in RPMI1640 medium containing 20% fetal bovine serum, 2 mM Glutamine (Sigma-Aldrich), 1% Penicillin-Streptomycin solution (Sigma-Aldrich) and 50 μg/ml Bovine Pituitary Extract (Invitrogen). HUVEC were passaged by trypsinization when the cultures reach a confluency of 70%. For all experiments, HUVEC were seeded at 0.6·10^5 cells/cm^2 and allowed to adhere for 24 hours.
(§2) HUVEC and NRK52E cells were pre-incubated with SUL compounds (10 μM) for 30 min and subsequently exposed to LPS for 24 hours under standard culture conditions. Cells were lysed in triZOL reagens (Invitrogen) and total RNA isolated according to manufacturers' instruction. 1 μg total RNA per sample was reverse transcribed using the FirstAid Reverse Transcription Kit (ThermoFisher). Copy-DNA equivalents of 5 ng total RNA were amplified on a ViiA7 Real-time PCR system (ThermoFisher, Waltham, Mass.) using iTaq Universal SYBR Green Supermix (Bio-Rad, Hercules, Calif.) and primers specific for tumor necrosis factor alpha, interleukin 1 beta, interleukin-6 and beta actin as loading control. Amplification was performed for 40 cycles of 95° C. for 30 s, 60° C. for 1 min. Relative mRNA expression was calculated as 2^−(Cq^gene^−Cq^reference^) and normalized to unstimulated control cells (100% inhibition) and vehicle-treated and LPS exposed cells (0% inhibition). The following primers were used: […]

IL-6 mRNA expression = test: Inhibition of LPS-induced IL-6 mRNA expression in HUVEC; type: cell-based, Human; conditions: 10 μM for 30 min, then LPS 24 hours
Method: as §1, §2

[2] = tested on: cytoplasmic oxidative stress in HUVEC; test: LPS-induced cellular superoxide in HUVEC (DHE); type: cell-based, Human; conditions: 10 μM for 30 min, LPS 100 ng/ml 24 hours
Method: as §1
The production of cellular and mitochondrial oxidative stress was measured using fluorescent probes for cellular and mitochondrial superoxide, i.e. dihydroethidium (DHE) and MitoSox (ThermoFisher), respectively. HUVEC were incubated with BN-80933, SUL-138 or SUL-150 (all 10 μM) for 30 min. Next, HUVEC were exposed to LPS (100 ng/ml) for an additional 24 hours. In the final hour of incubation, 2.5 μM of DHE or MitoSox was applied to each sample. HUVEC were washed in PBS and fixed in 4% paraformaldehyde at room temperature for 15 min. Nuclear staining was performed by 5 μM […] (DAPI) and fluorescence intensity of the samples was recorded in a CLARIOStar Plus plate reader (BMG Labtech) equipped with the appropriate filter sets. Fluorescence recordings for DHE and MitoSox were corrected for DAPI fluorescence. All experiments were performed in quadruplicate.

Cc1c(C)c2c(c(C)c1O)CC[C@@](C)(C(=O)N1CCN(CCO)CC1)O2 [SUL-138, (S)-(6-hydroxy-2,5,7,8-tetramethylchroman-2-yl)(4-(2-hydroxyethyl)piperazin-1-yl)methanone]
Serum NGAL level [1]: not different from Sham operated animals
Serum urea level [1]: not different from Sham operated animals
uncoupled respiration (CCCP) (HUVEC): almost restores the uncoupled respiration
inhibition of LPS-induced mRNA expression of TNFα (TNFα mRNA expression): 81.4 ± 4.5 %
inhibition of LPS-induced mRNA expression of IL-6 (IL-6 mRNA expression): 68.3 ± 6.7 %
LPS-induced cytoplasmic oxidative stress (DHE) [2]: mitigates the induction of cytoplasmic oxidative stress
